Several values for one entry are separate records, joined by “and”; a condition that tells them apart may be missing. Identical values can stand only once. Toxic doses and inconclusive results are not listed. No stated cut-off is given here; in the data, active means T/C of 150% or more; inactive means T/C below 125%.
System: L1210 leukemia ip in BDF1 mice, survival T/C
Test: NCI In Vivo Anticancer Drug Screen. Data for tumor model L1210 Leukemia (intraperitoneal) in B6D2F1 (BDF1) mice
Settings: endpoint: mean survival time, higher = longer survival
Outline: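 Transplanted-tumor mice were given test agent; controls received vehicle only. Survival readings from the two groups were divided (treated over control).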

[1] = dose: 100.0 mg/kg/injection, schedule: Q01DX001 (ip), vehicle: carboxymethylcellulose (CMC)
[2] = dose: 200.0 mg/kg/injection, schedule: Q01DX001 (ip), vehicle: carboxymethylcellulose (CMC)
[3] = dose: 400.0 mg/kg/injection, schedule: Q01DX001 (ip), vehicle: carboxymethylcellulose (CMC)
[4] = dose: 100.0 mg/kg/injection, schedule: Q01DX009 (ip), vehicle: Klucel (hydroxypropylcellulose) (HPC)
[5] = dose: 200.0 mg/kg/injection, schedule: Q01DX009 (ip), vehicle: Klucel (hydroxypropylcellulose) (HPC)
[6] = dose: 400.0 mg/kg/injection, schedule: Q01DX009 (ip), vehicle: Klucel (hydroxypropylcellulose) (HPC)
[7] = dose: 50.0 mg/kg/injection, schedule: Q04DX003 (ip), vehicle: saline with Tween-80
[8] = dose: 100.0 mg/kg/injection, schedule: Q04DX003 (ip), vehicle: saline
[9] = dose: 200.0 mg/kg/injection, schedule: Q04DX003 (ip), vehicle: saline
[10] = dose: 400.0 mg/kg/injection, schedule: Q04DX003 (ip), vehicle: saline
[11] = dose: 50.0 mg/kg/injection, schedule: Q01DX009 (ip), vehicle: saline with Tween-80
[12] = dose: 100.0 mg/kg/injection, schedule: Q01DX009 (ip), vehicle: saline with Tween-80
[13] = dose: 100.0 mg/kg/injection, schedule: Q04DX003 (ip), vehicle: saline with Tween-80
[14] = dose: 200.0 mg/kg/injection, schedule: Q04DX003 (ip), vehicle: saline with Tween-80
[15] = dose: 200.0 mg/kg/injection, schedule: Q01DX009 (ip), vehicle: saline with Tween-80
[16] = dose: 100.0 mg/kg/injection, schedule: Q01DX001 (ip), vehicle: saline
[17] = dose: 200.0 mg/kg/injection, schedule: Q01DX001 (ip), vehicle: saline
[18] = dose: 400.0 mg/kg/injection, schedule: Q01DX001 (ip), vehicle: saline

Measured: T/C

CCCC(O)(CCC)CC(=O)OCC
inactive: dose: 200.0 mg/kg/injection, schedule: Q04DX003 (ip), vehicle: saline sonified 106 % of control | dose: 400.0 mg/kg/injection, schedule: Q04DX003 (ip), vehicle: saline sonified 90 % of control

CCOC=Nc1cc(-n2cnc3c(Cl)ncnc32)ccc1C
inactive: [1] 87 % of control | [2] 98 % of control | [3] 96 % of control

Cc1ccc(NC(=O)Nc2ccccc2F)cc1Cl
inactive: [4] 111 % of control | [5] 97 % of control | [6] 92 % of control

C/C(=N\NC(N)=S)c1cccs1
inactive: dose: 12.5 mg/kg/injection, schedule: Q04DX003 (ip), vehicle: saline with Tween-80 93 % of control | dose: 25.0 mg/kg/injection, schedule: Q04DX003 (ip), vehicle: saline with Tween-80 103 % of control | [7] 101 % of control

CCOP(OCC)SSCn1nc2ccc3ccccc3n2c1=O
inactive: dose: 50.0 mg/kg/injection, schedule: Q01DX009 (ip), vehicle: Klucel (hydroxypropylcellulose) (HPC) 101 % of control

NC(N)=NN(CCN(N=O)N=C(N)N)N=O
inactive: dose: 100.0 mg/kg/injection, schedule: Q04DX002 (ip), vehicle: Klucel (hydroxypropylcellulose) (HPC) 96 % of control | dose: 200.0 mg/kg/injection, schedule: Q04DX002 (ip), vehicle: Klucel (hydroxypropylcellulose) (HPC) 104 % of control | dose: 400.0 mg/kg/injection, schedule: Q04DX002 (ip), vehicle: Klucel (hydroxypropylcellulose) (HPC) 86 % of control

CC(=O)Oc1cccc2c1C(=O)c1ccccc1C2=O
inactive: dose: 100.0 mg/kg/injection, schedule: Q01DX009 (ip), vehicle: saline 103 % of control | [8] 103 % of control | dose: 200.0 mg/kg/injection, schedule: Q01DX009 (ip), vehicle: saline 103 % of control | [9] 97 % of control | dose: 400.0 mg/kg/injection, schedule: Q01DX009 (ip), vehicle: saline 104 % of control | [10] 103 % of control

C=CCN(CC=C)c1nc(OC)nc(OC)n1
inactive: dose: 25.0 mg/kg/injection, schedule: Q01DX009 (ip), vehicle: saline with Tween-80 92 % of control | dose: 25.6 mg/kg/injection, schedule: Q04DX002 (ip), vehicle: saline with Tween-80 97 % of control | [11] 94 % of control | [7] 95 % of control | dose: 64.0 mg/kg/injection, schedule: Q04DX002 (ip), vehicle: saline with Tween-80 101 % of control | [12] 94 % of control | [13] 95 % of control and 103 % of control | dose: 160.0 mg/kg/injection, schedule: Q04DX002 (ip), vehicle: saline with Tween-80 101 % of control | [14] 92 % of control | dose: 400.0 mg/kg/injection, schedule: Q04DX002 (ip), vehicle: saline with Tween-80 101 % of control

CCOC(=Nc1ccccc1)c1ccccc1
inactive: [4] 104 % of control | [5] 100 % of control | [6] 102 % of control

ClCCCC1(c2ccc(Oc3ccccc3)cc2)OCCO1
inactive: [12] 88 % of control | [13] 105 % of control | [15] 92 % of control | [14] 95 % of control | dose: 400.0 mg/kg/injection, schedule: Q01DX009 (ip), vehicle: saline with Tween-80 93 % of control | dose: 400.0 mg/kg/injection, schedule: Q04DX003 (ip), vehicle: saline with Tween-80 94 % of control

O=C(NCC1CC1)Nc1cccc2ccccc12
inactive: dose: 100.0 mg/kg/injection, schedule: Q01DX009 (ip), vehicle: other 98 % of control | dose: 200.0 mg/kg/injection, schedule: Q01DX009 (ip), vehicle: other 89 % of control | dose: 400.0 mg/kg/injection, schedule: Q01DX009 (ip), vehicle: other 92 % of control

CCN(CC)c1ccc(C(=O)OCCNC2CCCCC2)cc1
inactive: dose: 75.0 mg/kg/injection, schedule: Q01DX001 (ip), vehicle: carboxymethylcellulose (CMC) 94 % of control | dose: 150.0 mg/kg/injection, schedule: Q01DX001 (ip), vehicle: carboxymethylcellulose (CMC) 98 % of control

c1ccc(-c2nc(-c3nccc4ccccc34)oc2-c2ccccc2)cc1
inactive: [16] 97 % of control | [17] 88 % of control | [18] 93 % of control

CCOC(=O)COc1cc(Cl)c(Cl)cc1Cl
inactive: dose: 75.0 mg/kg/injection, schedule: Q01DX009 (ip), vehicle: gum acacia 110 % of control | dose: 100.0 mg/kg/injection, schedule: Q04DX002 (ip), vehicle: gum acacia 100 % of control | dose: 200.0 mg/kg/injection, schedule: Q04DX002 (ip), vehicle: gum acacia 118 % of control | dose: 400.0 mg/kg/injection, schedule: Q04DX002 (ip), vehicle: gum acacia 92 % of control

O=[N+]([O-])c1ccc(N/N=C/c2cccnc2)cc1
inactive: dose: 100.0 mg/kg/injection, schedule: Q01DX001 (ip), vehicle: Klucel (hydroxypropylcellulose) (HPC) 96 % of control | [4] 92 % of control | dose: 200.0 mg/kg/injection, schedule: Q01DX001 (ip), vehicle: Klucel (hydroxypropylcellulose) (HPC) 95 % of control | [5] 90 % of control | dose: 400.0 mg/kg/injection, schedule: Q01DX001 (ip), vehicle: Klucel (hydroxypropylcellulose) (HPC) 88 % of control | [6] 101 % of control

Cc1ccc(S(=O)(=O)N2CCCC(Br)(Br)C(=O)c3ccccc32)cc1
inactive: dose: 100.0 mg/kg/injection, schedule: Q04DX003 (ip), vehicle: Klucel (hydroxypropylcellulose) (HPC) 100 % of control | dose: 200.0 mg/kg/injection, schedule: Q04DX003 (ip), vehicle: Klucel (hydroxypropylcellulose) (HPC) 97 % of control | dose: 400.0 mg/kg/injection, schedule: Q04DX003 (ip), vehicle: Klucel (hydroxypropylcellulose) (HPC) 96 % of control

CC(NC(=O)c1ccc2ccccc2n1)C(=O)O (centres undefined)
inactive: [1] 92 % of control | [2] 87 % of control | [3] 89 % of control

C=C1C2CCC3(C)C(c4ccoc4)OC(=O)CC13OC1CC(=O)C(C)(C)C(CC(=O)OC)C12C (centres undefined)
inactive: [16] 97 % of control | [17] 96 % of control | [18] 114 % of control

O=C(O)Cc1ccc2c(c1)C(=O)C(=O)N2
inactive: [8] 95 % of control | [9] 102 % of control | [10] 89 % of control

O=S(=O)(CCl)OCCCCOS(=O)(=O)CCl
inactive: dose: 31.5 mg/kg/injection, schedule: Q01DX009 (ip), vehicle: saline 108 % of control and 109 % of control | dose: 31.5 mg/kg/injection, schedule: Q01DX015 (ip), vehicle: saline 112 % of control | dose: 50.0 mg/kg/injection, schedule: Q01DX001 (ip), vehicle: saline 100 % of control | dose: 54.0 mg/kg/injection, schedule: Q01DX009 (ip), vehicle: saline 120 % of control and 124 % of control | dose: 90.0 mg/kg/injection, schedule: Q01DX009 (ip), vehicle: saline 124 % of control | dose: 90.0 mg/kg/injection, schedule: Q01DX015 (ip), vehicle: saline 124 % of control | [16] 111 % of control | dose: 100.0 mg/kg/injection, schedule: Q01DX015 (ip), vehicle: saline 108 % of control | dose: 133.0 mg/kg/injection, schedule: Q01DX001 (ip), vehicle: saline 104 % of control and 107 % of control and 121 % of control | dose: 150.0 mg/kg/injection, schedule: Q01DX009 (ip), vehicle: saline 104 % of control | dose: 200.0 mg/kg/injection, schedule: Q01DX015 (ip), vehicle: saline 97 % of control | dose: 300.0 mg/kg/injection, schedule: Q01DX001 (ip), vehicle: saline 104 % of control and 121 % of control

O=C1CCc2c(Cl)sc(Cl)c21
inactive: [11] 91 % of control | [12] 88 % of control | [15] 96 % of control

COc1cc(/C=C(/NC(=O)c2ccccc2)C(=O)O)ccc1O
inactive: [16] 94 % of control | [8] 96 % of control | [17] 89 % of control | [9] 97 % of control | [18] 96 % of control | [10] 88 % of control

CCCCCCCCC(C)NCCOC(=O)c1ccc(N)cc1 (centres undefined)
inactive: dose: 9.38 mg/kg/injection, schedule: Q01DX001 (ip), vehicle: other 102 % of control | dose: 18.75 mg/kg/injection, schedule: Q01DX001 (ip), vehicle: other 101 % of control | dose: 37.5 mg/kg/injection, schedule: Q01DX001 (ip), vehicle: other 98 % of control
